Laboratory results as given in patent US20070010566A1, “Thiazolidinones without basic nitrogen, their production and use as pharmaceutical agents” (priority 2005, published 2007).
pIC50: −log10 of the molar value.

Legend:
[1] = biological target: T1, Recombinant human Plk-1 (6×His) (Homo sapiens, UniProt P53350); assay: PLK enzyme assay (33P-γ-ATP incorporation in biotinylated casein, SPA); assay type: biochemical; conditions: recombinant human Plk-1, casein substrate, 0.5 μmol of ATP, 90 minutes at room temperature; read-out: PLK-1 IC50 [nM] Inhibition
T1 construct: 6×His; made in house; host or cells: baculovirus-infected insect cells (Hi5)
T1 sequence (P53350 whole entry): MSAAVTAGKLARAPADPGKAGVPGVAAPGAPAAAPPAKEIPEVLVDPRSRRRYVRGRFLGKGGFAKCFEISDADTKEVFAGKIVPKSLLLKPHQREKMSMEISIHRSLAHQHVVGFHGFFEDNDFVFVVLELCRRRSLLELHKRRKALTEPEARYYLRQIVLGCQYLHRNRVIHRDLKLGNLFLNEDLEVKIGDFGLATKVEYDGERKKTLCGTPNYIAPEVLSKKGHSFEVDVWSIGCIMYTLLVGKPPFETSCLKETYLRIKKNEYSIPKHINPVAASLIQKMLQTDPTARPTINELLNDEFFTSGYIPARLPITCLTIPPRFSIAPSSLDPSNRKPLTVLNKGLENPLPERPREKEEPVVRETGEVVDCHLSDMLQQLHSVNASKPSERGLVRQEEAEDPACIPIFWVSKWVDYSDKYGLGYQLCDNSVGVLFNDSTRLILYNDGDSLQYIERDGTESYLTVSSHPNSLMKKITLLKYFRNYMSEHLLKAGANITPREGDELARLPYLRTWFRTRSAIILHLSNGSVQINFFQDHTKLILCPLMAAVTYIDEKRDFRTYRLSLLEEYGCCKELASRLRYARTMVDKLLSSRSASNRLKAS
Experimental: Recombinant human Plk-1 (6×His) was purified from baculovirus-infected insect cells (Hi5).
10 ng of (produced in a recombinant manner and purified) PLK enzyme is incubated for 90 minutes at room temperature with biotinylated casein and 33P-γ-ATP as a substrate in a volume of 15 μl in 384-well Greiner small-volume microtiter plates (final concentrations in the buffer: 660 ng/ml of PLK; 0.7 μmol of casein, 0.5 μmol of ATP incl. 400 nCi/ml of 33P-γ-ATP; 10 mmol of MgCl2, 1 mmol of MnCl2; 0.01% NP40; 1 mmol of DTT, protease inhibitors; 0.1 mmol of Na2VO3 in 50 mmol of HEPES, pH 7.5). To complete the reaction, 5 μl of stop solution (500 μmol of ATP; 500 mmol of EDTA; 1% Triton X100; 100 mg/ml of streptavidin-coated SPA beads in PBS) is added. After the microtiter plate is sealed by film, the beads are sedimented by centrifuging (10 minutes, 1500 rpm). The incorporation of 33P-γ-ATP in casein is intended as a measurement of enzyme activity by β-counting.
Test substances are used in various concentrations (0 μmol, as well as in the range of 0.01-30 μmol). The final concentration of the solvent dimethyl sulfoxide is 1.5% in all batches.

[2] = test system: human MaTu breast tumour cells; assay: Proliferation assay (crystal violet staining); assay type: cell-based; conditions: 96 h, incubated for 4 days with test substance, read-out: Inhibition of the Tumour Cell Proliferation (MaTu) IC50
Experimental: Cultivated human MaTu breast tumour cells were flattened out at a density of 5000 cells/measuring point in a 96-well multititer plate in 200 μl of the corresponding growth medium. After 24 hours, the cells of one plate (zero-point plate) were colored with crystal violet (see below), while the medium of the other plates was replaced by fresh culture medium (200 μl), to which the test substances were added at various concentrations (0 μm, as well as in the range of 0.01-30 μm; the final concentration of the solvent dimethyl sulfoxide was 0.5%). The cells were incubated for 4 days in the presence of test substances. The cell proliferation was determined by coloring the cells with crystal violet: the cells were fixed by adding 20 μl/measuring point of an 11% glutaric aldehyde solution for 15 minutes at room temperature. After three washing cycles of the fixed cells with water, the plates were dried at room temperature. The cells were colored by adding 100 μl/measuring point of a 0.1% crystal violet solution (pH was set at 3 by adding acetic acid). […] The extinction was determined by photometry at a wavelength of 595 nm. The change of cell growth, in percent, was calculated by standardization of the measured values to the extinction values of the zero-point plate (=0%) and the extinction of the untreated (0 μm) cells (=100%).

Structure (SMILES)	IC50 [1] [nM]	pIC50 [2]
CCn1c(=C(C#N)C(=O)NCC#N)sc(=Cc2nc[nH]c2C)c1=O [Example 8]	250	5.44
CCn1c(=C(C#N)C(=O)NCC(F)(F)F)sc(=Cc2nc[nH]c2C)c1=O [Example 9]	230	5.38
